Results taken from publication PMC6199744, “Development of Chemical Proteomics for the Folateome and Analysis of the Kinetoplastid Folateome” (ACS Infectious Diseases, 2018).
Where two headings read alike, the source gives them in different places.

Tests used:
Type in all cases: binding
[1] = biological target: T1, HeLa cell extract proteins (Homo sapiens, UniProt P04843)
T1 construct: endogenous in cells; host or cells: HeLa cell extract
T1 sequence (P04843 24-607): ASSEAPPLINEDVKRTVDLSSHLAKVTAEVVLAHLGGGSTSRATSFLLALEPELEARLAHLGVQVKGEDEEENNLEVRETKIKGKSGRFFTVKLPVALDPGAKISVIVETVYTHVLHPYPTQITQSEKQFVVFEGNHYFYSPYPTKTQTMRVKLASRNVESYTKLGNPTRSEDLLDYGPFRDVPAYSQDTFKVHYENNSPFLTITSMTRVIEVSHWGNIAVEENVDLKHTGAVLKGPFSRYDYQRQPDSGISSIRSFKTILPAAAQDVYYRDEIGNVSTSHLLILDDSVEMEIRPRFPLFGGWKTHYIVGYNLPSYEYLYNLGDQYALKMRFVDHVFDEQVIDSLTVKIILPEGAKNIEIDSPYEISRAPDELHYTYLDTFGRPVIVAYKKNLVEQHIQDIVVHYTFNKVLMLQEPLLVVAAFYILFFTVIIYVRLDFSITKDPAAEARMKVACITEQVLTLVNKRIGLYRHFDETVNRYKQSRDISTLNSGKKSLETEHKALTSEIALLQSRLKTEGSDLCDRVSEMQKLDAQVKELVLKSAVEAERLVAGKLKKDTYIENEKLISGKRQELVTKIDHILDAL

[2] = biological target: T2, HeLa cell extract proteins (Homo sapiens, UniProt O60884)
T2 construct: endogenous in cells; host or cells: HeLa cell extract
T2 sequence (O60884 whole entry): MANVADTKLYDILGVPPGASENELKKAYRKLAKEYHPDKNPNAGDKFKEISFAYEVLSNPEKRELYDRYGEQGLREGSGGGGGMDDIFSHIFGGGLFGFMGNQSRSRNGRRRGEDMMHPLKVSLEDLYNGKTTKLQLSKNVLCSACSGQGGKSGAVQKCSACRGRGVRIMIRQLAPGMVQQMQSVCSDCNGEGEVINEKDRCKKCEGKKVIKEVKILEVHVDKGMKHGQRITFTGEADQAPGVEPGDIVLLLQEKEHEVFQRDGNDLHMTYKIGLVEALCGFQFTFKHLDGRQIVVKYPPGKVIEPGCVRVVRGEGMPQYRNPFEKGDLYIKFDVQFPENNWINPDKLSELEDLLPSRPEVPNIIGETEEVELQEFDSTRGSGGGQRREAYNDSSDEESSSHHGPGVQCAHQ

[3] = biological target: T3, HeLa cell extract proteins (Homo sapiens, UniProt P41252)
T3 construct: endogenous in cells; host or cells: HeLa cell extract
T3 sequence (P41252 1-1262): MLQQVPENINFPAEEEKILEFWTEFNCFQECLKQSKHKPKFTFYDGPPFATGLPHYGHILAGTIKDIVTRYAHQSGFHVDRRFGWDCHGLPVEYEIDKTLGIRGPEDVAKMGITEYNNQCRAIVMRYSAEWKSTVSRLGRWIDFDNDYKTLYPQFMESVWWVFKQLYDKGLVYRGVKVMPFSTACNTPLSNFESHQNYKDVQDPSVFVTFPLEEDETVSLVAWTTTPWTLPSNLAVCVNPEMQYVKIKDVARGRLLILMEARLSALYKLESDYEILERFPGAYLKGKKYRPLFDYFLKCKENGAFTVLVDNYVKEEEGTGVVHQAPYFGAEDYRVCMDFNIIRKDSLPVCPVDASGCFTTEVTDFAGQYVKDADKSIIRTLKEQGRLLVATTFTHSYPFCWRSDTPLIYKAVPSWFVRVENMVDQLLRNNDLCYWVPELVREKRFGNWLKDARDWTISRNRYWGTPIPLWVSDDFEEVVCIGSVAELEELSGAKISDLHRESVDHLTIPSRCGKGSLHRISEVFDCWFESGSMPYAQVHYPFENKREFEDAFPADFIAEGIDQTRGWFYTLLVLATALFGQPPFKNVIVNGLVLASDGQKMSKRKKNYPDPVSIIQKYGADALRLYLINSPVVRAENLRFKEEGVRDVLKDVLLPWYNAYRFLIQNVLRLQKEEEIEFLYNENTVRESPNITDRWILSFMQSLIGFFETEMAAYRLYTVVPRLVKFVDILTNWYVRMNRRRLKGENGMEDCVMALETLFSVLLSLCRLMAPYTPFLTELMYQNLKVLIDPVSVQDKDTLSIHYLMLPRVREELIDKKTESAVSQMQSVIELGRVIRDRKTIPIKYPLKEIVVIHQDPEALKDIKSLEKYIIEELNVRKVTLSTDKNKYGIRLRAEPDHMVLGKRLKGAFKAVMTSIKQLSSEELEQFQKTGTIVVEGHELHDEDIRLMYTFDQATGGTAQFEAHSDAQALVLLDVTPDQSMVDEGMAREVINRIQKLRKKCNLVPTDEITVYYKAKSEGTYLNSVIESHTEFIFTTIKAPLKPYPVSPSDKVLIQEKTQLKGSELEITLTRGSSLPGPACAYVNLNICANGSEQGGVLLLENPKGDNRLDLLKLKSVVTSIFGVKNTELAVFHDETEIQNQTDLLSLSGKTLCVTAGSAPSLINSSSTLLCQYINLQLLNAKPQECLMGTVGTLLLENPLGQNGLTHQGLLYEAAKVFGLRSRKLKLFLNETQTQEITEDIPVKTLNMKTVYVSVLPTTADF

[4] = biological target: T4, HeLa cell extract proteins (Homo sapiens, UniProt Q01105)
T4 construct: endogenous in cells; host or cells: HeLa cell extract
T4 sequence (Q01105 whole entry): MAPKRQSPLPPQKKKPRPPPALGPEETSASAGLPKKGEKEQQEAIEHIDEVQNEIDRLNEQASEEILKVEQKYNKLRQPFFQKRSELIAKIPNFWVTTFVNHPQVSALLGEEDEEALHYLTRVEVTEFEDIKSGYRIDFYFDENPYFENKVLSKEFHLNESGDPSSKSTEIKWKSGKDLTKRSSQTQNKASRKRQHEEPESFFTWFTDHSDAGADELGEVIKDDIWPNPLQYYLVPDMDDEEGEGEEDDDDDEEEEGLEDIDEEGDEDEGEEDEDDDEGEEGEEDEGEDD

[5] = biological target: T5, HeLa cell extract proteins (Homo sapiens, UniProt Q13155)
T5 construct: endogenous in cells; host or cells: HeLa cell extract
T5 sequence (Q13155 1-320): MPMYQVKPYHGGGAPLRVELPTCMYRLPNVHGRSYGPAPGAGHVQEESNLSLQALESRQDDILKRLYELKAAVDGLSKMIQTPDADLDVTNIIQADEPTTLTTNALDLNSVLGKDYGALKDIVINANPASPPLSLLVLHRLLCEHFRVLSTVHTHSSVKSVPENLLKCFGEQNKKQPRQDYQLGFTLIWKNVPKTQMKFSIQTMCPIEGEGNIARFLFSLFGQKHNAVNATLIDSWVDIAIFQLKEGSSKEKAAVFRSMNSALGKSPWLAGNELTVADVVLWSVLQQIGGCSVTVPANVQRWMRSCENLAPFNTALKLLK

[6] = biological target: T6, HeLa cell extract proteins (Homo sapiens, UniProt Q9P2K8)
T6 construct: endogenous in cells; host or cells: HeLa cell extract
T6 sequence (Q9P2K8 whole entry): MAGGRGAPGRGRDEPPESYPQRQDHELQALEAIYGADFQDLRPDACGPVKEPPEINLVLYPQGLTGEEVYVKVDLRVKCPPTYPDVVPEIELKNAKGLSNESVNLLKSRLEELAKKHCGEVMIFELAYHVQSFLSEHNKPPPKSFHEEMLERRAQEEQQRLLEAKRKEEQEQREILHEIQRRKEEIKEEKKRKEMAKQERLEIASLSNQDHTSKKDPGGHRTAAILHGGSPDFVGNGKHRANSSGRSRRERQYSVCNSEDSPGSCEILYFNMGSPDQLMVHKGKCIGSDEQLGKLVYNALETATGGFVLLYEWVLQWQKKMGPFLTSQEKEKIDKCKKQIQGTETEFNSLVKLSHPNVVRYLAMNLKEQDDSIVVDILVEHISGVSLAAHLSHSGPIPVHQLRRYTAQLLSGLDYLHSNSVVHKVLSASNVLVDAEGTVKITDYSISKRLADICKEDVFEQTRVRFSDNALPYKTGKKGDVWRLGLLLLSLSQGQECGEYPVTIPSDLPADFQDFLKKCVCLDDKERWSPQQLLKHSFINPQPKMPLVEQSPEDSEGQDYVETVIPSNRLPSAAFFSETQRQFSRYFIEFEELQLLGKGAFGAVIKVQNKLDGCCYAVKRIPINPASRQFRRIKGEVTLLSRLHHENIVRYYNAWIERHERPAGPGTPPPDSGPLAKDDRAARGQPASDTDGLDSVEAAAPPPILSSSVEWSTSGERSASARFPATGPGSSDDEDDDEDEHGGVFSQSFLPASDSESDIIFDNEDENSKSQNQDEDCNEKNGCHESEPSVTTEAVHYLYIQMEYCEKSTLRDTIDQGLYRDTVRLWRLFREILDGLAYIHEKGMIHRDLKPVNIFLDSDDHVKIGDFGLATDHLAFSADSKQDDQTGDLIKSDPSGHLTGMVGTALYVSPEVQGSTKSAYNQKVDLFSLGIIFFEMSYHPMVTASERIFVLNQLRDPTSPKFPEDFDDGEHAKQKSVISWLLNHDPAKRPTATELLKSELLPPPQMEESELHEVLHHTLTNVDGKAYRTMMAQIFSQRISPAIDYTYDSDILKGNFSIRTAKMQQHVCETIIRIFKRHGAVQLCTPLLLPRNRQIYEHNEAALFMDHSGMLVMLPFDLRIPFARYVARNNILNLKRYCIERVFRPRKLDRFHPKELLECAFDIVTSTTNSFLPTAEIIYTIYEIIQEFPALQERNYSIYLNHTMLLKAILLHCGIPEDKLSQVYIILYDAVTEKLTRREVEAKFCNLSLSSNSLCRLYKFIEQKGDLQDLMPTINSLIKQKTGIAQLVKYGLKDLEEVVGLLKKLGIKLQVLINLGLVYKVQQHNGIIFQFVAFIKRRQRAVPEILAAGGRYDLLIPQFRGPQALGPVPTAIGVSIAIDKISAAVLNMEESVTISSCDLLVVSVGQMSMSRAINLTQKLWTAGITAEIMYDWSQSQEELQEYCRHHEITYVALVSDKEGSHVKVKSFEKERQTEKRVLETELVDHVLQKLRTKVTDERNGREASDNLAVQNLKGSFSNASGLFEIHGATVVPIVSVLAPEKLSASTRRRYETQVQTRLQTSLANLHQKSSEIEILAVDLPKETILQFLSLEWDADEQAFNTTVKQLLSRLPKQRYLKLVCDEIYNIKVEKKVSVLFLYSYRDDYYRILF

[7] = biological target: T7, HeLa cell extract proteins (Homo sapiens, UniProt P48643)
T7 construct: endogenous in cells; host or cells: HeLa cell extract
T7 sequence (P48643 whole entry): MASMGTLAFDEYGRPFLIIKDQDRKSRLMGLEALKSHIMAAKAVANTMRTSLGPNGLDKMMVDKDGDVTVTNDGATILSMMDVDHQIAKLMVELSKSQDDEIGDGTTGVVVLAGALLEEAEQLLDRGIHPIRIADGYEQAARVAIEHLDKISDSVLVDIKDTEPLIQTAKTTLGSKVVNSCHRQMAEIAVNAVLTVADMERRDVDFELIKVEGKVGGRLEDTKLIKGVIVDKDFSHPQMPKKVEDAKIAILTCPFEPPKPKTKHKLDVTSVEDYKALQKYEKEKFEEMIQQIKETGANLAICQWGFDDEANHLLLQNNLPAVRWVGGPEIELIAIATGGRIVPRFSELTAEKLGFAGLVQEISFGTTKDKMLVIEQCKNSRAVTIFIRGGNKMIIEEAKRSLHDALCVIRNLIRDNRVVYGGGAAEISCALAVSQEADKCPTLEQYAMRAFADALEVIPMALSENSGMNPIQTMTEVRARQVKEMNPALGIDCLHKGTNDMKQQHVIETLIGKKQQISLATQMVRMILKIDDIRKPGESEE

[8] = HeLa, protein SET (ISOFORM 1 OF PROTEIN SET.)
[9] = HeLa, protein CCT5 (T-COMPLEX PROTEIN 1 SUBUNIT EPSILON.)

## Nc1nc2cccc(-c3ccccc3)c2n1Cc1ccc(Cl)c(Cl)c1 [compound 3]
[1]; protein RPN1, HeLa
  fold changes relative to vehicle control: 1.02
[2]; protein DNAJA2, HeLa
  fold changes relative to vehicle control: 0.95
[3]; HeLa, protein IARS
  fold changes relative to vehicle control: 1.28
[4]; [8]
  fold changes relative to vehicle control: 0.9 fold
[5]; captured protein JTV1, HeLa
  fold changes relative to vehicle control: 0.89
[6]; captured protein EIF2AK4, HeLa
  fold changes relative to vehicle control: 1.02
[7]; [9]
  fold changes relative to vehicle control: 1.18 fold

## Nc1nc2[nH]cc(CCc3ccc(C(=O)N[C@@H](CCC(=O)O)C(=O)O)cc3)c2c(=O)[nH]1 [PTX, pemetrexed]
[1]
  fold changes relative to vehicle control: 0.96
[2]
  fold changes relative to vehicle control: 0.9
[3]
  fold changes relative to vehicle control: 0.96
[4]
  fold changes relative to vehicle control: 1.08
[5]
  fold changes relative to vehicle control: 0.9
[6]
  fold changes relative to vehicle control: 0.65
[7]
  fold changes relative to vehicle control: 1.13

## Nc1nc2c(c(=O)[nH]1)N(C=O)C(CNc1ccc(C(=O)N[C@@H](CCC(=O)O)C(=O)O)cc1)CN2 (stereo partly shown) [LEU, leucovorin]
[1]; HeLa, protein RPN1
  fold changes relative to vehicle control: 0.88
[2]; protein DNAJA2, HeLa
  fold changes relative to vehicle control: 0.86
[3]; HeLa, captured protein IARS
  fold changes relative to vehicle control: 1.01
[4]; HeLa, captured protein SET
  fold changes relative to vehicle control: 0.98
[5]; HeLa, captured protein JTV1
  fold changes relative to vehicle control: 1.04
[6]; HeLa, protein EIF2AK4 (ISOFORM 1 OF EUKARYOTIC TRANSLATION INITIATION FACTOR 2-ALPHA KINASE 4)
  fold changes relative to vehicle control: 0.83
[7]; HeLa, protein CCT5
  fold changes relative to vehicle control: 1.05

## CCCCCCOc1cccc(Cc2cnc(N)nc2N)c1 [compound 2]
[1]; protein RPN1, HeLa
  fold changes relative to vehicle control: 1.28
[2]; protein DNAJA2, HeLa
  fold changes relative to vehicle control: 1.14
[3]; HeLa, protein IARS
  fold changes relative to vehicle control: 1.22
[4]; [8]
  fold changes relative to vehicle control: 3.28 fold
[5]; captured protein JTV1, HeLa
  fold changes relative to vehicle control: 1.16
[6]; captured protein EIF2AK4, HeLa
  fold changes relative to vehicle control: 0.96
[7]; [9]
  fold changes relative to vehicle control: 1.97 fold

## NCCOCCOCC(=O)Nc1nc2ncc(CNc3ccc(C(=O)NC(CCC(=O)O)C(=O)O)cc3)nc2c(=O)[nH]1 (stereo not shown) [compound 6]
[1]; HeLa, protein RPN1
  fold changes relative to vehicle control: 0.96
[2]; protein DNAJA2, HeLa
  fold changes relative to vehicle control: 1.01
[3]; HeLa, captured protein IARS
  fold changes relative to vehicle control: 1.03
[4]; HeLa, captured protein SET
  fold changes relative to vehicle control: 1.16
[5]; HeLa, captured protein JTV1
  fold changes relative to vehicle control: 0.89
[6]
  fold changes relative to vehicle control: 1.02
[7]; HeLa, protein CCT5
  fold changes relative to vehicle control: 1.29

## CCCCCCOc1ccc(Cc2cnc(N)nc2N)cc1 [compound 1]
[1]; protein RPN1, HeLa
  fold changes relative to vehicle control: 1.09
[2]; protein DNAJA2, HeLa
  fold changes relative to vehicle control: 0.92
[3]; HeLa, protein IARS
  fold changes relative to vehicle control: 1.15
[4]; [8]
  fold changes relative to vehicle control: 2.11 fold
[5]; captured protein JTV1, HeLa
  fold changes relative to vehicle control: 1.04
[6]; captured protein EIF2AK4, HeLa
  fold changes relative to vehicle control: 0.97
[7]; [9]
  fold changes relative to vehicle control: 1.41 fold

## NCCCNc1ccc(C(=O)NC(CCC(=O)O)C(=O)O)cc1 (stereo not shown) [compound 7]
[1]; HeLa, protein RPN1
  fold changes relative to vehicle control: 0.94
[2]; protein DNAJA2, HeLa
  fold changes relative to vehicle control: 0.91
[3]; HeLa, captured protein IARS
  fold changes relative to vehicle control: 1.1
[4]; HeLa, captured protein SET
  fold changes relative to vehicle control: 0.84
[5]; HeLa, captured protein JTV1
  fold changes relative to vehicle control: 0.85
[6]
  fold changes relative to vehicle control: 1.02
[7]; HeLa, protein CCT5
  fold changes relative to vehicle control: 1.03
